Assay results published in ChEMBL document CHEMBL1151344, “Potential anticancer agents. XVI. Isolation of bicyclofarnesane sesquiterpenoids from Capsicodendron dinisii” (1980).
Converted amounts (≈) assume the structure as drawn. The source made the active and inactive calls. The rule behind the calls is not given here.

Assays:
[1] = system: P388; experiment: In vivo cytotoxicity against mouse P388 cells; format: functional, organism-based
[2] = system: 9KB; experiment: Cytotoxicity against human 9KB cells; format: functional, cell-based
[3] = system: P388; experiment: Cytotoxicity against mouse P388 cells; format: functional
[4] = Cytotoxicity against human 9KB5 cells; format: functional; settings: read-out: ED50 (the source's name)

## CC(=O)O[C@@H]1CC2=C(C(=O)OC2)[C@@]2(C)CCCC(C)(C)[C@H]12
[1]
  Activity: inactive
[2]
  Activity: inactive
[3]
  Activity: inactive

## CC(=O)O[C@@H]1C=C2C(=O)OC[C@]2(O)[C@@]2(C)CCCC(C)(C)[C@H]12 [CINNAMOSMOLIDE]
[1]
  Activity: inactive
[4]
  EC50: 1.2 µg/mL (≈ 3.89 µM)
[3]
  Activity: inactive

## CC1(C)CCC[C@]2(C)C3=C(COC3=O)[C@H](O)C[C@@H]12
[1]
  Activity: inactive
[2]
  Activity: inactive
[3]
  Activity: inactive

## CC(=O)O[C@@H]1[C@@H](O)C2=C(C(=O)OC2)[C@@]2(C)CCCC(C)(C)[C@H]12
[1]
  Activity: inactive
[2]
  Activity: inactive
[3]
  Activity: inactive

## CC(=O)O[C@@H]1C=C(C=O)[C@](O)(C=O)[C@@]2(C)CCCC(C)(C)[C@H]12 [CINNAMODIAL]
[1]
  Activity: inactive
[3]; read-out: ED50 (the source's name)
  EC50: 2.2 µg/mL (≈ 7.13 µM)
